From patent publication US9238619B2, “Phenalkylamine derivatives, pharmaceutical compositions containing them, and their use in therapy” (AbbVie Deutschland GmbH & Co. KG, priority 2010, dated 2016) come the findings set out here.

Where a name gives a salt, the structure may show the parent alone.

Sequence of human GlyT1c transporter (P48067 whole entry): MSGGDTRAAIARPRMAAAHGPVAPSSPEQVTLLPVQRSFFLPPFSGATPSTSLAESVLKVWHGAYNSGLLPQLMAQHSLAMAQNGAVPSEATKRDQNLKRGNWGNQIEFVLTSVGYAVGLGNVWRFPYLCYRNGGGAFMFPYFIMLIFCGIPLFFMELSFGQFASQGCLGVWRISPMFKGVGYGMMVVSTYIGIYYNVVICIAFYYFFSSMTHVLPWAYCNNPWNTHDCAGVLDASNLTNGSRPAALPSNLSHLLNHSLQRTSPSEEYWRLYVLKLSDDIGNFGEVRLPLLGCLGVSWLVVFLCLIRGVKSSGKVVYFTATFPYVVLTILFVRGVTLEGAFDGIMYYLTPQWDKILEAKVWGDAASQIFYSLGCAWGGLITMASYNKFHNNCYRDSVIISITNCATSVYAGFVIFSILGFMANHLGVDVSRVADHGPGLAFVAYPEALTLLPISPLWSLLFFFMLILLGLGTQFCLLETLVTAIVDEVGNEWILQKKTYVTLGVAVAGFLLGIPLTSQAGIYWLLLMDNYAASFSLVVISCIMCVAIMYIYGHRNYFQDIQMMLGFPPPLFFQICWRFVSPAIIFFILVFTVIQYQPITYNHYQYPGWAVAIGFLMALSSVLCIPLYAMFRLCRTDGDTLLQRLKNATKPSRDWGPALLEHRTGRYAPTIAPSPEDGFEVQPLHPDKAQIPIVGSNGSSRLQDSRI

This assay has as its target human GlyT1c transporter (Homo sapiens (Human), UniProt P48067). The assay is described as follows: Radioligand binding assays using recombinant CHO cell membranes expressing human GlyT1. Conditions: read-out: radioligand binding Kiapp. As to the method: Radioligand binding to human GlyT1c transporter-expressing membranes was determined as described in Mezler et al., Molecular Pharmacology 74:1705-1715, 2008.
Regarding `CN1CC(Cc2ccccc2)(c2cccc(OCCNS(=O)(=O)c3cn(C)cn3)c2)C1` [Example 78, 1-Methyl-1H-imidazole-4-sulfonic acid {2-[3-(3-benzyl-1-methyl-azetidin-3-yl)phenoxy]-ethyl}-amide], the Ki was at most 100 nM.

As for `CN(C)CC(Cc1ccccc1)c1ccc(F)c(OCCNS(=O)(=O)c2cn(C)cn2)c1` (stereo not shown) [Example 32, 1-Methyl-1H-imidazole-4-sulfonic acid {2-[5-(1-benzyl-2-dimethylamino-ethyl)-2-fluoro-phenoxy]-ethyl}-amide], the Ki was at most 100 nM. The value for `CCCS(=O)(=O)N(C)Cc1cccc(C(CN)C2(c3ccc(Cl)cc3)CCC2)c1` (stereo not shown) [Example 42, N-(3-{2-Amino-1-[1-(4-chlorophenyl)cyclobutyl]ethyl}benzyl)-N-methylpropane-1-sulfonamide hydrochloride] was at most 10000 nM; that for `CN1CCCC(Cc2ccccc2)(c2cccc(OCCNS(=O)(=O)CC3CC3)c2)C1` (stereo not shown) [Example 64, N-{2-[3-(3-Benzyl-1-methyl-piperidin-3-yl)-phenoxy]-ethyl}-C-cyclopropyl-methanesulfonamide] was at most 10000 nM.

`CC(C)N1CCC(Cc2ccccc2)(c2cccc(OCCNS(=O)(=O)c3cn(C)cn3)c2)C1` (stereo not shown) [Example 77, 1-Methyl-1H-imidazole-4-sulfonic acid {2-[3-(3-benzyl-1-isopropyl-pyrrolidin-3-yl)-phenoxy]-ethyl}-amide]: the Ki was at most 1000 nM. On to `CCOC(=O)N1CC(Cc2ccccc2)(c2cccc(OCCNS(=O)(=O)CC3CC3)c2)C1` [Example 48, 3-Benzyl-3-[3-(2-cyclopropylmethanesulfonylamino-ethoxy)-phenyl]-azetidine-1-carboxylic acid ethyl ester], for which the Ki is at most 1000 nM. The value for `Cn1cnc(S(=O)(=O)NCc2cccc(C(Cc3ccccc3)C(=O)N3CCOCC3)c2)c1` (stereo not shown) [Example 17, 1-Methyl-1H-imidazole-4-sulfonic acid 3-(1-benzyl-2-morpholin-4-yl-2-oxo-ethyl)-benzylamide] was at most 10000 nM; that for `Cn1cc(S(=O)(=O)NCCOc2cccc(C(CN)Cc3cccc(Cl)c3)c2)cn1` (stereo not shown) [Example 2, 1-Methyl-1H-pyrazole-4-sulfonic acid (2-{3-[2-amino-1-(3-chloro-benzyl)ethyl]-phenoxy}-ethyl)-amide, hydrochloride] was at most 1000 nM. Consider `CN(C)CC(Cc1ccccc1)c1cccc(CNS(=O)(=O)c2cnn(C)c2)c1` (stereo not shown) [Example 27, 1-Methyl-1H-pyrazole-4-sulfonic acid 3-(1-benzyl-2-dimethylamino-ethyl)benzylamide], for which the Ki was at most 1000 nM. The value for `CN1CCC(Cc2ccccc2)(c2cccc(CNS(=O)(=O)c3cnn(C)c3)c2)C1` (stereo not shown) [Example 69, 1-Methyl-1H-pyrazole-4-sulfonic acid 3-(3-benzyl-1-methyl-pyrrolidin-3-yl)-benzylamide] was at most 1000 nM. To `Cn1cc(S(=O)(=O)NCCOc2cccc(C(Cc3ccccc3)CN3CCCC3)c2)cn1` (stereo not shown) [Example 34, 1-Methyl-1H-pyrazole-4-sulfonic acid {2-[3-(1-benzyl-2-pyrrolidin-1-yl-ethyl)phenoxy]-ethyl}-amide] belongs at most 1000 nM; to `CN(C)CC(Cc1ccccc1)c1cccc(CNS(=O)(=O)c2cn(C)cn2)c1` (stereo not shown) [Example 26, 1-Methyl-1H-imidazole-4-sulfonic acid 3-(1-benzyl-2-dimethylamino-ethyl)benzylamide], at most 1000 nM.

Consider `Cn1cnc(S(=O)(=O)NCCOc2cccc(C(CN)Cc3cc(F)cc(F)c3)c2)c1` (stereo not shown) [Example 11, 1-Methyl-1H-imidazole-4-sulfonic acid (2-{3-[2-amino-1-(3,5-difluoro-benzyl)ethyl]-phenoxy}-ethyl)-amide, hydrochloride], for which the Ki was at most 1000 nM. With `Cn1cnc(S(=O)(=O)NCCOc2cccc(C(CN)Cc3cccc(C(F)(F)F)c3)c2)c1` (stereo not shown) [Example 12, 1-Methyl-1H-imidazole-4-sulfonic acid (2-{3-[2-amino-1-(3-trifluoromethylbenzyl)-ethyl]-phenoxy}-ethyl)-amide, hydrochloride], the Ki was at most 100 nM. Consider `Cn1cc(S(=O)(=O)NCc2cccc(C(Cc3ccccc3)C(N)=O)c2)cn1` (stereo not shown) [Example 15, 2-{3-[(1-Methyl-1H-pyrazole-4-sulfonylamino)-methyl]-phenyl}-3-phenyl-propionamide], for which the Ki is at most 10000 nM. To `O=S(=O)(CC1CC1)NCCOc1cccc(C2(Cc3ccccc3)CCNC2)c1` (stereo not shown) [Example 59, N-{2-[3-(3-Benzyl-pyrrolidin-3-yl)-phenoxy]-ethyl}-C-cyclopropyl-methanesulfonamide] belongs at most 100 nM. To `Cn1cnc(S(=O)(=O)NCCOc2ccc(F)c(C(CN)Cc3ccccc3)c2)c1` (stereo not shown) [Example 1, 1-Methyl-1H-imidazole-4-sulfonic acid {2-[3-(2-amino-1-benzyl-ethyl)-4-fluoro-phenoxy]-ethyl}-amide hydrochloride] belongs at most 1000 nM; to `CCOC(=O)N1CC(Cc2ccccc2)(c2cccc(OCCNS(=O)(=O)c3cnn(C)c3)c2)C1` [Example 46, 3-Benzyl-3-{3-[2-(1-methyl-1H-pyrazole-4-sulfonylamino)-ethoxy]-phenyl}-azetidine-1-carboxylic acid ethyl ester], at most 10000 nM; to `Cn1cnc(S(=O)(=O)NCCOc2cccc(C3(Cc4ccccc4)CN(CC(F)F)C3)c2)c1` [Example 55, 1-Methyl-1H-imidazole-4-sulfonic acid (2-{3-[3-benzyl-1-(2,2-difluoro-ethyl)azetidin-3-yl]-phenoxy}-ethyl)-amide], at most 1000 nM.

Regarding `CN1CC(Cc2ccccc2)(c2ccc(F)c(OCCN(C)S(=O)(=O)c3cn(C)cn3)c2)C1` [Example 53, 1-Methyl-1H-imidazole-4-sulfonic acid {2-[5-(3-benzyl-1-methyl-azetidin-3-yl)-2-fluoro-phenoxy]-ethyl}-methyl-amide], the Ki is at most 1000 nM. The value for `Cn1cnc(S(=O)(=O)NCCOc2cccc(C3(Cc4ccccc4)CN(CC(F)(F)F)C3)c2)c1` [Example 54, 1-Methyl-1H-imidazole-4-sulfonic acid (2-{3-[3-benzyl-1-(2,2,2-trifluoro-ethyl)azetidin-3-yl]-phenoxy}-ethyl)-amide] was at most 1000 nM. To `CN(Cc1cccc(C(CNC(=O)OC(C)(C)C)C2(c3ccc(Cl)cc3)CCC2)c1)S(=O)(=O)c1cnn(C)c1` (stereo not shown) [Example 39, tert-Butyl {2-[1-(4-chlorophenyl)cyclobutyl]-2-[3-({methyl[(1-methyl-1H-pyrazol-4-yl)sulfonyl]amino}methyl)phenyl]ethyl}carbamate] belongs at most 10000 nM; to `CN(C)CC(Cc1ccccc1)c1cccc(OCCNS(=O)(=O)c2cn(C)cn2)c1` (stereo not shown) [Example 25, 1-Methyl-1H-imidazole-4-sulfonic acid {2-[3-(1-benzyl-2-dimethylaminoethyl)-phenoxy]-ethyl}-amide], at most 1000 nM; to `Cn1cnc(S(=O)(=O)NCCOc2cccc(C(CN)Cc3cccc(Cl)c3)c2)c1` (stereo not shown) [Example 9, 1-Methyl-1H-imidazole-4-sulfonic acid (2-{3-[2-amino-1-(3-chloro-benzyl)ethyl]-phenoxy}-ethyl)-amide, hydrochloride], at most 1000 nM. Take `O=S(=O)(CC1CC1)NCc1cccc(C2(Cc3ccccc3)CCNC2)c1` (stereo not shown) [Example 68, N-[3-(3-Benzyl-pyrrolidin-3-yl)-benzyl]-C-cyclopropyl-methanesulfonamide]: the Ki was at most 1000 nM.

For the compound `CN(C)CC(Cc1ccccc1)c1cc(OCCNS(=O)(=O)c2cnn(C)c2)ccc1Cl` (stereo not shown) [Example 30, 1-Methyl-1H-pyrazole-4-sulfonic acid {2-[3-(1-benzyl-2-dimethylamino-ethyl)-4-chloro-phenoxy]-ethyl}-amide, hydrochloride], the Ki is at most 100 nM. The value for `Cn1cc(S(=O)(=O)NCCOc2cccc(C3(Cc4ccccc4)CNC(=O)C3)c2)cn1` (stereo not shown) [Example 58, 1-Methyl-1H-pyrazole-4-sulfonic acid {2-[3-(3-benzyl-5-oxo-pyrrolidin-3-yl)phenoxy]-ethyl}-amide] was at most 1000 nM. To `COCCN1CC(Cc2ccccc2)(c2cccc(OCCNS(=O)(=O)c3cn(C)cn3)c2)C1` [Example 73, 1-Methyl-1H-imidazole-4-sulfonic acid (2-{3-[3-benzyl-1-(2-methoxy-ethyl)azetidin-3-yl]-phenoxy}-ethyl)-amide] belongs at most 100 nM; to `O=C1CC(Cc2ccccc2)(c2cccc(OCCNS(=O)(=O)CC3CC3)c2)CN1` (stereo not shown) [Example 57, N-{2-[3-(3-Benzyl-5-oxo-pyrrolidin-3-yl)-phenoxy]-ethyl}-C-cyclopropyl-methanesulfonamide], at most 10000 nM; to `CN1CCC(Cc2ccccc2)(c2cccc(OCCN(C)S(=O)(=O)c3cn(C)cn3)c2)C1` (stereo not shown) [Example 74, 1-Methyl-1H-imidazole-4-sulfonic acid {2-[3-(3-benzyl-1-methyl-pyrrolidin-3-yl)-phenoxy]-ethyl}-methyl-amide], at most 1000 nM.

As to `CN(C)CC(Cc1ccccc1)c1cc(OCCNS(=O)(=O)c2cn(C)cn2)ccc1F` (stereo not shown) [Example 23, 1-Methyl-1H-imidazole-4-sulfonic acid {2-[3-(1-benzyl-2-dimethylamino-ethyl)-4-fluoro-phenoxy]-ethyl}-amide], the Ki was at most 100 nM. To `CN(C)CC(Cc1cccc(C(F)(F)F)c1)c1cccc(OCCNS(=O)(=O)c2cn(C)cn2)c1` (stereo not shown) [Example 29, 1-Methyl-1H-imidazole-4-sulfonic acid (2-{3-[2-dimethylamino-1-(3-trifluoromethyl-benzyl)-ethyl]-phenoxy}-ethyl)-amide] belongs at most 100 nM; to `CN(Cc1cccc(C(CN)C2(c3ccc(Cl)cc3)CCC2)c1)S(=O)(=O)CCCF` (stereo not shown) [Example 43, N-(3-{2-Amino-1-[1-(4-chlorophenyl)cyclobutyl]ethyl}benzyl)-3-fluoro-N-methylpropane-1-sulfonamide hydrochloride], at most 10000 nM. Consider `Cn1cnc(S(=O)(=O)NCc2cccc(C(CN)Cc3ccccc3)c2)c1` (stereo not shown) [Example 19, 1-Methyl-1H-imidazole-4-sulfonic acid 3-(2-amino-1-benzyl-ethyl)benzylamide, hydrochloride], for which the Ki was at most 1000 nM.
